Data reported in ChEMBL document CHEMBL1201862, “PubChem BioAssay data set” (2004).
Activity calls are given as the source filed them.

Legend:
Caspase-6 = biological target: T1, Caspase-6 (Homo sapiens, UniProt P55212); assay: inhibition of CASP6 peptide cleavage – biochemical, VEID-R110 fluorescence, cherry-pick, dose response (AID 720632)
T1 sequence (P55212 whole entry): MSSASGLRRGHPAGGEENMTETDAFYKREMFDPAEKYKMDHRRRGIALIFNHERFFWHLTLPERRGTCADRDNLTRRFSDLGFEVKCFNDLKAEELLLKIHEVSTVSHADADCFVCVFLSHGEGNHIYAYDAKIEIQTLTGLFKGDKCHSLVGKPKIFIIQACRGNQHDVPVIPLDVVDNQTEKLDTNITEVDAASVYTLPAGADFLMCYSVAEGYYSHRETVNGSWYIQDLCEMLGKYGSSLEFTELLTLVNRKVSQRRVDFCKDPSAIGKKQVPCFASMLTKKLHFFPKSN

[1] = biological target: Cell division cycle 7-related protein kinase (Homo sapiens, UniProt O00311); assay type: functional;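 note: value obtained from a kinome-wide kinase panel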
[2] = biological target: Casein kinase I isoform alpha (Homo sapiens, UniProt P48729); assay type: functional
[3] = biological target: Tyrosine-protein kinase FRK (Homo sapiens, UniProt P42685); assay type: functional;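 note: FRK tested as one member of a kinome panel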
[4] = biological target: Testis-specific serine/threonine-protein kinase 2 (Homo sapiens, UniProt Q96PF2); assay type: functional;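 note: part of the Navigating the Kinome panel, target entry STK22B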
[5] = biological target: Receptor tyrosine-protein kinase erbB-4 (Homo sapiens, UniProt Q15303); assay type: functional;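 note: ERBB4 member of a kinome-wide kinase profiling panel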
Misshapen-like kinase 1 = Misshapen-like kinase 1 (Homo sapiens, UniProt Q8N4C8); assay type: functional;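 note: kinome panel screen with MINK as the panel member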
[6] = biological target: Casein kinase II subunit alpha (Homo sapiens, UniProt P68400); assay type: functional
[7] = biological target: High affinity nerve growth factor receptor (Homo sapiens, UniProt P04629); assay type: functional;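 note: NTRK1 tested as one member of a kinome-wide profiling panel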
[8] = biological target: Mitogen-activated protein kinase 12 (Homo sapiens, UniProt P53778); assay type: functional;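 note: measured as one member of a kinome-wide kinase profiling panel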
[9] = biological target: Serine/threonine-protein kinase pim-2 (Homo sapiens, UniProt Q9P1W9); assay type: functional;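 note: value comes from a broad kinase panel profiling study in which PIM2 was one of the panel members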
[10] = biological target: Serine/threonine-protein kinase MRCK alpha (Homo sapiens, UniProt Q5VT25); assay type: functional
[11] = biological target: MAP kinase-activated protein kinase 5 (Homo sapiens, UniProt Q8IW41); assay type: functional;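 note: measured as one member of a kinome panel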
[12] = biological target: Dual specificity tyrosine-phosphorylation-regulated kinase 4 (Homo sapiens, UniProt Q9NR20); assay type: functional
[13] = biological target: Fibroblast growth factor receptor 3 (Homo sapiens, UniProt P22607); assay type: functional
[14] = biological target: Serine/threonine-protein kinase D3 (Homo sapiens, UniProt O94806); assay type: functional;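 note: determined within a kinase panel screen, with PRKCN as the panel member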
[15] = biological target: Tyrosine-protein kinase Srms (Homo sapiens, UniProt Q9H3Y6); assay type: functional;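 note: SRMS measured as one member of a kinome-wide kinase profiling panel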
[16] = biological target: Protein kinase C gamma type (Homo sapiens, UniProt P05129); assay type: functional
[17] = biological target: Rho-associated protein kinase 1 (Homo sapiens, UniProt Q13464); assay type: functional;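 note: measured within a broad kinome-wide panel profiling many kinases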
[18] = biological target: Calcium/calmodulin-dependent protein kinase type II subunit gamma (Homo sapiens, UniProt Q13555); assay type: functional
[19] = biological target: cAMP-dependent protein kinase catalytic subunit PRKX (Homo sapiens, UniProt P51817); assay type: functional
[20] = biological target: Homeodomain-interacting protein kinase 4 (Homo sapiens, UniProt Q8NE63); assay type: functional
[21] = biological target: Fibroblast growth factor receptor 1 (Homo sapiens, UniProt P11362); assay type: functional
[22] = biological target: Serine/threonine-protein kinase Chk2 (Homo sapiens, UniProt O96017); assay type: functional;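 note: CHEK2 entry within a kinome-wide screening panel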
[23] = biological target: Protein kinase C zeta type (Homo sapiens, UniProt Q05513); assay type: functional;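 note: measured as one member of a broad kinase profiling panel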
[24] = biological target: RAC-alpha serine/threonine-protein kinase (Homo sapiens, UniProt P31749); assay type: functional;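 note: AKT1 affinity measured as one member of a kinome-wide kinase profiling panel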
[25] = biological target: Tyrosine-protein kinase Lck (Homo sapiens, UniProt P06239); assay type: functional;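 note: lck was assayed as one member of a kinase panel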
[26] = biological target: Homeodomain-interacting protein kinase 2 (Homo sapiens, UniProt Q9H2X6); assay type: functional;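 note: measured within a kinome-wide kinase profiling panel, HIPK2 being one panel member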
[27] = biological target: Dual specificity protein kinase CLK4 (Homo sapiens, UniProt Q9HAZ1); assay type: functional
[28] = biological target: Mast/stem cell growth factor receptor Kit (Homo sapiens, UniProt P10721); assay type: functional;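 note: KIT entry within a kinase panel assay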
[29] = biological target: Dual specificity protein kinase CLK2 (Homo sapiens, UniProt P49760); assay type: functional
[30] = biological target: MAP kinase-activated protein kinase 3 (Homo sapiens, UniProt Q16644); assay type: functional;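 note: value comes from a kinome-wide profiling panel in which MAPKAPK3 is one of the panel members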
Cytochrome P450 2C9 = Cytochrome P450 2C9 (Homo sapiens, UniProt P11712)
[31] = biological target: Serine/threonine-protein kinase 3 (Homo sapiens, UniProt Q13188); assay type: functional;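 note: measured as one member of a kinome-wide kinase panel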
[32] = biological target: Dual specificity tyrosine-phosphorylation-regulated kinase 1A (Homo sapiens, UniProt Q13627); assay type: functional;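 note: measured against DYRK1A as one member of a broad kinome profiling panel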
[33] = biological target: Serine/threonine-protein kinase PLK1 (Homo sapiens, UniProt P53350); assay type: functional;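 note: PLK1 measured as one member of a kinome-wide profiling panel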
[34] = biological target: Ribosomal protein S6 kinase beta-1 (Homo sapiens, UniProt P23443); assay type: functional;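 note: measured as one member of a kinome-wide profiling panel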
[35] = biological target: Serine/threonine-protein kinase pim-1 (Homo sapiens, UniProt P11309); assay type: functional
[36] = biological target: Tyrosine-protein kinase receptor TYRO3 (Homo sapiens, UniProt Q06418); assay type: functional;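 note: TYRO3 value obtained as one member of a kinome-wide profiling panel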
[37] = biological target: Insulin-like growth factor 1 receptor (Homo sapiens, UniProt P08069); assay: Navigating the Kinome. Panel member name: IGF1R; assay type: functional
[38] = biological target: Serine/threonine-protein kinase Nek4 (Homo sapiens, UniProt P51957); assay type: functional
Sequence of Serine/threonine-protein kinase Nek4 (P51957 whole entry): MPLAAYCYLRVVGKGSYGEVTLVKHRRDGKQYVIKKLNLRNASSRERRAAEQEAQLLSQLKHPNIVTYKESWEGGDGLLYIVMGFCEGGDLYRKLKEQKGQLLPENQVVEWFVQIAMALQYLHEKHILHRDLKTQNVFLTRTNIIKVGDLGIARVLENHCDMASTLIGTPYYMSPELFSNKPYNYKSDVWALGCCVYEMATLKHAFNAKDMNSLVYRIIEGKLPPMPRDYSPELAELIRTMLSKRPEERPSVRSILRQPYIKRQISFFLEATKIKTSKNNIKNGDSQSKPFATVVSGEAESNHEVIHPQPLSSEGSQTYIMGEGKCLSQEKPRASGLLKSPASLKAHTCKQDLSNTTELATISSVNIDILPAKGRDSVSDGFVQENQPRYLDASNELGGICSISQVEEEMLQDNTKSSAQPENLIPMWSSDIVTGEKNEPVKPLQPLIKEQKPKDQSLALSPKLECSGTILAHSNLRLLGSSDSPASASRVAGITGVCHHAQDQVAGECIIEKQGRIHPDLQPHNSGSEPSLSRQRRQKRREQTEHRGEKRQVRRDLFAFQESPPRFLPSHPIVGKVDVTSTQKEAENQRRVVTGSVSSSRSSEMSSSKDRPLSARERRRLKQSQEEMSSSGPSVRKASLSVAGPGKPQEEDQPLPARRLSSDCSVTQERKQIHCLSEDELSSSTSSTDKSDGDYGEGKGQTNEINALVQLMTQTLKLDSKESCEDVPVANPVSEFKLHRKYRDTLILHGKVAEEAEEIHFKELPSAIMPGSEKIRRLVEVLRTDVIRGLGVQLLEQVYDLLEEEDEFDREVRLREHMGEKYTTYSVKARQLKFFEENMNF

Sequence of Rho-associated protein kinase 1 (Q13464 whole entry): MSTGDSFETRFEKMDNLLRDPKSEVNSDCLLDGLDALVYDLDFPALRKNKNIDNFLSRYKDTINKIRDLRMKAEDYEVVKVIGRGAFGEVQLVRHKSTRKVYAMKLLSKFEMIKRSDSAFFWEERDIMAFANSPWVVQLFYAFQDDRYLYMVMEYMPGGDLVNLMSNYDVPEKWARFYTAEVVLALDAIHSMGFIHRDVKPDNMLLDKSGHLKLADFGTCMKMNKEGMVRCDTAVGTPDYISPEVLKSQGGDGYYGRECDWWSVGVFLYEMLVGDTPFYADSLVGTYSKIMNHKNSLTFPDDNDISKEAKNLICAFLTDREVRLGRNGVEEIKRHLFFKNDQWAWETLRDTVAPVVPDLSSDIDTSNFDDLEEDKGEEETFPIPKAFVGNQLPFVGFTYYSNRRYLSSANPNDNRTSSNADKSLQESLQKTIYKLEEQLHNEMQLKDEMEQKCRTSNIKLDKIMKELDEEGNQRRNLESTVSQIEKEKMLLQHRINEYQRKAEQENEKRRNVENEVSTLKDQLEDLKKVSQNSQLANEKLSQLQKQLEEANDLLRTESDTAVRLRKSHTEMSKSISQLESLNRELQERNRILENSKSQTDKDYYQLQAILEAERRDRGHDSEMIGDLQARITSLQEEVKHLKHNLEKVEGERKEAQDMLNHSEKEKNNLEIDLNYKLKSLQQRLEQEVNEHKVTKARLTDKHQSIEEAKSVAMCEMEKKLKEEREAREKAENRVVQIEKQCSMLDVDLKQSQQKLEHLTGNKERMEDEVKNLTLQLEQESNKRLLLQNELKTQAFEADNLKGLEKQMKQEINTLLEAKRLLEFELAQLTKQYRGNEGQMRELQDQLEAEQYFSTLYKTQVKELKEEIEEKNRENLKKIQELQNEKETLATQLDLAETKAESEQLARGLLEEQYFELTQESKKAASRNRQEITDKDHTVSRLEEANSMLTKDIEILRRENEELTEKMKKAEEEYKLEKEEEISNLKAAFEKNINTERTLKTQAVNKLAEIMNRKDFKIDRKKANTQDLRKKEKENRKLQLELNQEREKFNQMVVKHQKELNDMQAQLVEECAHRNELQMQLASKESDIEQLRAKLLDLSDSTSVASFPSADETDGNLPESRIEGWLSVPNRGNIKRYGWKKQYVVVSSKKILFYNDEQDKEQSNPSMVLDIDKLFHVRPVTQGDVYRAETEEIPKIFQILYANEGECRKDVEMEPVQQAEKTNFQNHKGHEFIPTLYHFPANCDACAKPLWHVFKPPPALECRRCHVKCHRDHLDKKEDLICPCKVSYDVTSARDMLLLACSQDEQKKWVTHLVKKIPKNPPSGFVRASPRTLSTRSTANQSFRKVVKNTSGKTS
Sequence of Dual specificity tyrosine-phosphorylation-regulated kinase 4 (Q9NR20 whole entry): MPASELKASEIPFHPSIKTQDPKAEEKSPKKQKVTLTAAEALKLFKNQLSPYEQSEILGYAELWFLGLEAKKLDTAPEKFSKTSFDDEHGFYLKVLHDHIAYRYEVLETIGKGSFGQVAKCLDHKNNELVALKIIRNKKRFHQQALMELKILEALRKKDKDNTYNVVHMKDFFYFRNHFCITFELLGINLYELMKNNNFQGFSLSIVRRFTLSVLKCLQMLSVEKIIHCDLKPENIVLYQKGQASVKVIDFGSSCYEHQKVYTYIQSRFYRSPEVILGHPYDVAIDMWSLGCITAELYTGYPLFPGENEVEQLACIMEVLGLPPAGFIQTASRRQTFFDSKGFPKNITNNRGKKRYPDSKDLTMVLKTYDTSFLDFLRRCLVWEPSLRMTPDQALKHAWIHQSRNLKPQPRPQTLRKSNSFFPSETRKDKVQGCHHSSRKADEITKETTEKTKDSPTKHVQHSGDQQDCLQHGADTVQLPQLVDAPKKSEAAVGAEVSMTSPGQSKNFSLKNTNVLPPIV
Sequence of Protein kinase C zeta type (Q05513 whole entry): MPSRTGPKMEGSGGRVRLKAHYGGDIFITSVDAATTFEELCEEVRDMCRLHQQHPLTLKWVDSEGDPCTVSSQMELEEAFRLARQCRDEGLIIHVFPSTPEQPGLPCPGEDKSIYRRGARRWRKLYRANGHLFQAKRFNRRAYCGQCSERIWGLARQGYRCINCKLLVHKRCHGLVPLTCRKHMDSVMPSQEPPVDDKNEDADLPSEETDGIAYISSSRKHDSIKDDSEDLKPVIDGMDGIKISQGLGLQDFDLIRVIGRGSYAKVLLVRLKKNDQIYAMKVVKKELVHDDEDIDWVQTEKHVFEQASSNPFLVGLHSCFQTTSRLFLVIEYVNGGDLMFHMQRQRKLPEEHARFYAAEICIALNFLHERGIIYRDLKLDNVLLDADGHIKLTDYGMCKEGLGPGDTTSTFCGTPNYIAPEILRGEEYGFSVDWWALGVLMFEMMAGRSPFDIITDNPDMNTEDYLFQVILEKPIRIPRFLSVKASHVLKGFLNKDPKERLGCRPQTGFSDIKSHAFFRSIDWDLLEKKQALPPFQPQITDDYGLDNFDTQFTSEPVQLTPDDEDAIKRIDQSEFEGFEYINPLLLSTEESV
Sequence of Insulin-like growth factor 1 receptor (P08069 31-736 limits assumed): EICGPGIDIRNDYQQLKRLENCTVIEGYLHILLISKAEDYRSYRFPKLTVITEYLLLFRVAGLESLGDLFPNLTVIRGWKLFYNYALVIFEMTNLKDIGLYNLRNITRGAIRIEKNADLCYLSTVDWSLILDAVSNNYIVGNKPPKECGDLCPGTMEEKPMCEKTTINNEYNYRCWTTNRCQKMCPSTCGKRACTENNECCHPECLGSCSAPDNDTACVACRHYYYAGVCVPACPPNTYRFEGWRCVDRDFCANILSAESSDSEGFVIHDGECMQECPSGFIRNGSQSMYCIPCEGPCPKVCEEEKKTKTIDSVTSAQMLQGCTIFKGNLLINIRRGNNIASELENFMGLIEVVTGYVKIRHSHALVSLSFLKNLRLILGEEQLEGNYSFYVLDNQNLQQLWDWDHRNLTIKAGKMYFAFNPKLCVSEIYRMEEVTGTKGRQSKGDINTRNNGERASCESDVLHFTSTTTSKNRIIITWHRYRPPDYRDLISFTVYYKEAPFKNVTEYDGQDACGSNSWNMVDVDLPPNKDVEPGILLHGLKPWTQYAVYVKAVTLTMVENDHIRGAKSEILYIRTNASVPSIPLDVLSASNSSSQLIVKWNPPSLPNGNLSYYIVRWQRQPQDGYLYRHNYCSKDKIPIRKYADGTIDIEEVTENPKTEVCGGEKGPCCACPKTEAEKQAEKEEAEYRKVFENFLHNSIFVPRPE
Sequence of Insulin-like growth factor 1 receptor (P08069 741-1367 limits assumed): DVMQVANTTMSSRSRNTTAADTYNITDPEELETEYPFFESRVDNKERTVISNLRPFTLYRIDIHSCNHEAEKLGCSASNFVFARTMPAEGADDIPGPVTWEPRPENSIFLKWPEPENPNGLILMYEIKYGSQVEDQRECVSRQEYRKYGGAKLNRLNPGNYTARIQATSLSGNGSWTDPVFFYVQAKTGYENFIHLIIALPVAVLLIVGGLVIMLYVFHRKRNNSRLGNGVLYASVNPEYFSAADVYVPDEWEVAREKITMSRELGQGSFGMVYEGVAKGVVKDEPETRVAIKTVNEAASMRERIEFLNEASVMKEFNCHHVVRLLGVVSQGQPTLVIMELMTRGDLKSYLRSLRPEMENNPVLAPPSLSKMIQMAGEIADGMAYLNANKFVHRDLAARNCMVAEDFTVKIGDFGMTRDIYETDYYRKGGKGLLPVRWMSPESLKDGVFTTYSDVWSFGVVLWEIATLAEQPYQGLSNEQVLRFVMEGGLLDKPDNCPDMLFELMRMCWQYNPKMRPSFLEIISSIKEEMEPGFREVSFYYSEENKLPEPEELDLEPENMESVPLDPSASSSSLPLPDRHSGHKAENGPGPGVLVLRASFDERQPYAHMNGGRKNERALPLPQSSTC
Sequence of Serine/threonine-protein kinase pim-1 (P11309 whole entry): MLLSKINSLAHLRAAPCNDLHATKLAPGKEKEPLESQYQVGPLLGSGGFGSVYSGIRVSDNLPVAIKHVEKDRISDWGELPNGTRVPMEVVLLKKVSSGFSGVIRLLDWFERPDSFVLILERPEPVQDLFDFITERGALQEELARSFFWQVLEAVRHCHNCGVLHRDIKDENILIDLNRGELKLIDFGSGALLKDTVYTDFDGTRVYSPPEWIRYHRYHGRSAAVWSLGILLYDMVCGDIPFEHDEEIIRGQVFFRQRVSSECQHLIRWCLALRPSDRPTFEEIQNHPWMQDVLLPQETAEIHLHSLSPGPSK

Q: Which AC50 (Caspase-6) does the source give for `O=C(COC(=O)c1ccc([N+](=O)[O-])s1)Nc1cccc(S(=O)(=O)/N=C2/CCCCCN2)c1` here?
A: Its AC50 is 4570 nM (active).

Q: Which results are given for `Oc1c2ccccc2c2c3c(cccc13)N=N2` [SP-600125]?
A: Ki [1]: 1000 nM (active); Ki [2]: 316 nM (active); Ki [3]: 63.1 nM (active); Ki [4]: > 1580 nM (inactive); Ki [5]: 3980 nM (active); Ki (Misshapen-like kinase 1): 200 nM (active); Ki [6]: 501 nM (active); Ki [7]: 1260 nM (active); Ki [8]: > 6310 nM (inactive); Ki [9]: 316 nM (active); Ki [10]: > 10000 nM (inactive); Ki [11]: > 1580 nM (inactive); Ki [12]: > 7940 nM (inactive); Ki [13]: 158 nM (active); Ki [14]: 100 nM (active); Ki [15]: > 1580 nM (inactive); Ki [16]: 316 nM (active); Ki [17]: 2000 nM (active); Ki [18]: 1580 nM (active); Ki [19]: > 1580 nM (inactive); Ki [20]: 2000 nM (active); Ki [21]: 251 nM (active); Ki [22]: 501 nM (active); Ki [23]: > 7940 nM (inactive); Ki [24]: > 7940 nM (inactive); Ki [25]: 2000 nM (active); Ki [26]: 200 nM (active); Ki [27]: 63.1 nM (active); Ki [28]: 1260 nM (active); Ki [29]: 631 nM (active); Ki [30]: > 10000 nM (inactive); AC50 (Cytochrome P450 2C9): inconclusive; Ki [31]: 316 nM (active); Ki [32]: 126 nM (active); Ki [33]: > 7940 nM (inactive); Ki [34]: 126 nM (active); Ki [35]: 501 nM (active); Ki [36]: 1000 nM (active); Ki [37]: > 2000 nM (inactive); Ki [38]: 1000 nM (active)
